From US20170224679A1, “Use of CXCR2 Antagonists For The Prevention and/or Treatment of Chemotherapy Induced Peripheral Neuropathy (CIPN)” (GlaxoSmithKline Intellectual Property Development Limited, priority 2014, published 2017)

Legend:
[1] = tested on: Sprague-Dawley rats; assay: CXCR2 antagonist effect on oxaliplatin-induced acute sensory injury rat (PWT, von Frey); format: in vivo
Method: If the animal withdrew or lifted the paw upon stimulation, then a hair with force immediately lower than that tested was used. If no response was observed, then a hair with force immediately higher was tested.

[2] = tested on: HCT116 cell line; assay: Colorectal cancer cell line proliferation assay, HCT116; format: cell-based; conditions: HCT116, compound alone 8.5 μM, non-significant
Method: Cell proliferation assay: Cells were seeded in 96-well plates (Costar) at different cell densities: HCT116, 500 cells per well; Caco-2, 1000 cells per well. Total volume of the medium was 90 μl per well. Cells were incubated for 24 hours at 37° C. and 5% CO2 incubator. […] The final concentration of the Compound of Formula (A) was 8.5 μM. […] The cell proliferation rate was measured by adding 100 μl of CellTiter-Glo™ (Promega) according to the manufacturer's instructions. After 10 minutes of incubation, the cell lysates were transferred into OptiPlate-384 well, the luminescence was recorded by BioTek Synergy™ 4 Hybrid Microplate Reader with Gen5 software. All data points were generated in five replicates. Three independent experiments were performed. […] All data were presented as the mean±standard error of the mean determined from three independent experiments.

[3] = tested on: Sprague-Dawley rats; assay: CXCR2 antagonist effect on repeat dosing oxaliplatin induced sensory injury rat; conditions: oxaliplatin-treated rats, 20 mg/kg p.o. b.i.d. 4 weeks
Method: Male Sprague-Dawley rats (109-167 g, ˜5weeks old) were housed in cages in groups of three in a controlled environment of constant temperature and moisture (temperature: 25±3° C., light: dark cycle of 12:12 hours) with food (25 g/rat/day of LabDiet 5053) and water available ad libitum.
MC (Sigma Cat #423238) was made up in water at 1% (w/v) (1 g per 100 mL water) and left on a stirrer until completely dissolved. The formulation was prepared every 6-8 days in 400-700 mL each time and stored at 4° C. protected from light. The dosing volume used was 10 mL/kg to give a 20 mg/kg p.o. dose. Vehicle treated animals were dosed b.i.d. with 1% MC w/v at 10 mL/kg p.o.
A fresh solution was prepared before every injection. Control vehicle animals were treated with 5% w/v Gluclose at 5ml/kg. Glucose (Sigma Aldrich Cat #G7021) was made up in milli-Q water at 5% (w/v) (5 g per 100 mL water) and left on a stirrer until completely dissolved.
Body weight tracking: The bodyweights of rats were measured twice a week for 4 weeks on Days 1, 3, 9, 11, 16, 18, 23, and 25. […]
Rats were anesthetized with chloral hydrate (350 mg/kg, 3.5 mL/kg, i.p.). […] The right sciatic nerve was carefully identified and conduction velocity was measured by recording action potentials from an electrode placed between the second and third digits as described by Jamieson et al., Br. J. Cancer, 88(12):1942-7 (2003), and electrically stimulating the nerve (5V, 0.5 s, single-wave pulses) via a platinum wire electrode at the sciatic notch and ankle. The length between the sciatic notch and ankle was measured.
The nerve conduction velocity was calculated as the length between sciatic notch and ankle divided by the difference between the time latencies at the stimulation sites [latency (sciatic notch)−latency (ankle)].
A 1 cm segment of the left sciatic nerve (distal end) was located and carefully dissected out. […] The ratio of inner area over entire area of nerve fibers of sciatic nerves was then calculated as an indicator of thickness of myelin sheath of nerves.

[4] = molecular target: T1, CXCR2 receptor (Homo sapiens, UniProt P25025); assay: Calcium mobilization assay (FLIPR, IL-8 induced); format: cell-based; set-up: expressed in transfected cells; host or cells: CHO-K1 cells
T1 sequence (P25025 1-360): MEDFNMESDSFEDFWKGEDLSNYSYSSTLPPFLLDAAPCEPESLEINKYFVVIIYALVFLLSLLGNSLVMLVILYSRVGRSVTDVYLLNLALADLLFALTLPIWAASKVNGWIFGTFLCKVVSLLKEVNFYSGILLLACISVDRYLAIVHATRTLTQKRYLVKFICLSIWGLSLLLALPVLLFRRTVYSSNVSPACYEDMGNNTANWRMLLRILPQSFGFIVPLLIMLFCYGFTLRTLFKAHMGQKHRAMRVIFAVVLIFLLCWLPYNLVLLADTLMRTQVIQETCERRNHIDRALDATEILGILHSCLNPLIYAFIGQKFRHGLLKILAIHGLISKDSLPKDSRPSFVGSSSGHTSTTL
Method: CHO-K1 cells, stably expressing CXCR2 and Gαl6, were grown to 80% confluency in DMEM/F12 (HAM's) 1:1, w/10% FCS (heat inactivated), w/2 mM L-glutamine, w/0.4 mg/ml G418 while maintained at 37° C. in a 5% CO2 incubator. Twenty four hours prior to conducting the assay, the cells were harvested and plated (40,000 cells per well) in a 96 well, black wall, clear bottom plate (Packard View) and returned to the CO2 incubator. On the day of the assay, compounds were serially diluted in 100% DMSO to 300× the desired assay concentration. Growth media was aspirated from the cells and replaced with 100 μL of load media (EMEM with Earl's salts w/LGlutamine, 0.1% BSA, (Bovunlinar Cohen Fraction V from Seriologicals Corp.), 4 uM Fluo-4-acetoxymethyl ester fluorescent indicator dye (Fluo-4 AM, from Molecular Probes) and 2.5 mM probenecid) and incubated for 1 hour at 37° C. in a CO2 incubator. Load media was aspirated and replaced with 100 μL of EMEM with Earl's salts w/L-Glutamine, 0.1% gelatin and 2.5 mM probenecid and incubated for an additional 10 min. Serially diluted compound (3 μL) in DMSO at 300× was transferred to a 96 well plate containing 297 micro liters of KRH (120 mM NaCl, 4.6 mM KCl, 1.03 mM KH2PO4, 25 mM NaHCO3, 1.0 mM CaCl2, 1.1 mM MgCl2, 11 mM glucose, 20 mM HEPES (pH 7.4)) w/2.5 mM probenecid and 0.1% gelatin (compound now at 3×). […]

[5] = tested on: Caco-2 cell line; assay: Colorectal cancer cell line proliferation assay, Caco-2; format: cell-based; conditions: Caco-2, compound alone 8.5 μM, non-significant
Method: Data Analysis: pIC50 values were calculated by software GraphPad Prism 5 using sigmoidal concentration-response (variable slope). All data were presented as the mean±standard error of the mean determined from three independent experiments.

[6] = molecular target: T1, CXCR2 receptor; assay: GPCR Arrestin Assay (DiscoveRX PathHunter), CXCR2; format: cell-based; set-up: host or cells: PathHunter CHO cell lines
Method: Certain compounds of the invention were also tested by DiscoveRX Corporation (42501 Albrae Street, Fremont, Calif. 94538, United States) in their GPCR Arrestin Assay to determine their activity against a panel of receptors including CXCR2 and CXCR1. PathHunter CHO cell lines were expanded from freezer stocks according to standard procedures. Cells were seeded in a total volume of 20 μL into white walled, 384-well microplates and incubated at 37° C. for the appropriate time prior to testing. The cells were pre-incubated with antagonist followed by agonist challenge at the EC80 concentration. Intermediate dilution of sample stocks was performed to generate 5× sample in assay buffer. 5 μL of 5× sample was added to cells and incubated at 37° C. or room temperature for 30 minutes. […] Assay signal was generated through a single addition of 12.5 or 15 μL (50% v/v) of PathHunter Detection reagent cocktail, followed by one hour incubation at room temperature. Microplates were read following signal generation with a PerkinElmer Envision™ instrument for chemiluminescent signal detection. Compound activity was analyzed using CBIS data analysis suite (ChemInnovation, Calif.).

[7] = molecular target: T1, CXCR2 receptor; assay: Human whole blood assay version ii) (CD11b, GROα stimulated); format: cell-based; set-up: Assay d) measures the cellular functional activity to the native expressed human CXCR2 in whole blood; endogenous in cells; host or cells: human whole blood (neutrophils); conditions: 33 nM GROα, neutrophil CD11b, read-out: pIC50 against the CXCR2 receptor (converted)
Method: Blood was withdrawn by venipuncture from consented adults and poured into a Sterilin tube containing an anti-coagulant Heparin (10 μL/mL of blood). All the test compounds were dissolved in DMSO to 4 mM and serial diluted across the plate, 1 in 3 to provide 10 point dose response curves. The compounds were then diluted 100 fold in -PBS [Phosphate buffered saline (without Calcium Chloride and Magnesium Chloride)] after which, 1 μL was dispensed in 96 U bottom Costar plates using an FX. This was done to reduce the final DMSO concentration to 0.25% and for compounds to be screened at 10 uM final assay concentration, after addition of blood.
10 μL of blood was transferred to the compound plate using a multi-channel pipette, gently tapped and incubated for 15 minutes, at 37° C. After 15 minutes, the stimulant GROα was diluted to 100 nM in 0.1% BSA (Albumin Bovine Serum)-PBS and 5 μL is dispensed across the whole plate for a final concentration of 33 nM. The plate was gently tapped and incubated further for 15 minutes at 37° C. […]
Samples were run on a Becton and Dickinson (BD)-Acurri C6 Flow Cytometer using a HyperCyt sampling apparatus (IntelliCyt) with a flow rate 2 μL/sec. CD11 b upregulation is monitored in neutrophils and identified using a combination of both side scatter and CD16 expression.

O=C(Nc1ccc(Cl)c(S(=O)(=O)N2CCNCC2)c1O)Nc1cccc(F)c1Cl [Compound of Formula (A), 1-(4-chloro-2-hydroxy-3-(piperazin-1-ylsulfonyl)phenyl)-3-(2-chloro-3-fluorophenyl)urea]
oxaliplatin induced mechanical allodynia (PWT) vs oxaliplatin and vehicle group ([1]; Day 3, 5, 20 and 50 mg/kg p.o. b.i.d. from Day -1): reduced the mechanical allodynia
oxaliplatin induced mechanical allodynia (PWT) vs oxaliplatin and vehicle group ([1]; Day 7, 20 and 50 mg/kg p.o. b.i.d. only): robust reduction of the mechanical allodynia
decrease of basal proliferation [2]: 8.9±0.7%
sciatic nerve conduction velocity between sciatic notch and ankle ([3]; Day 29-31, mean±SEM): 40.83±1.45 m/s
ratio of inner area over entire area of the nerve fibers (myelin sheath thickness) ([3]; left sciatic nerve, mean±SEM): 0.17±0.01
Kb [4]: 3.98 nM
decrease of basal proliferation [5]: 2.7±2.1%

CN1CCC(C)(S(=O)(=O)c2c(Cl)ccc(NC(=O)Nc3cccc(F)c3Cl)c2O)CC1 [Compound of Formula (D), 1-(4-chloro-3-((1,4-dimethylpiperidin-4-yl)sulfonyl)-2-hydroxyphenyl)-3-(2-chloro-3-fluorophenyl)urea]
selectivity for CXCR2 over CXCR1 ([6]; GPCR Arrestin Assay e)): 29 fold
IC50 ([6]; PathHunter CHO cells, agonist at EC80, read-out: pIC50 against the CXCR2 receptor (converted)): 100 nM
IC50 [7]: 1580 nM
